Data set [1] can be described thus: Fluorescence quantum yields and fluorescence lifetimes in water and methanol. It is filed as physicochemical. As to conditions: for φf in CH3OH / φf in H2O / τ (ns): Table 2; for τ (ns): fluorescence lifetime; for fluorescence quantum efficiency: in water, quinine sulfate standard; for Φf / τf (ns): Table 1. From the text:
(§1) While the synthetic steps are all straight-forward, those involving conversion of the diiodobenzene to 4-(4-iodophenyl)-2-methyl-3-butyn-2-ol occur with lower yields and the desired products must be separated from structurally similar byproducts. The alkylamino groups were attached in an early step but converted to the quaternary ammonium derivatives as the last step of the synthesis. The intermediates and final products were characterized by mass spectrometry and proton and carbon NMR. […]
The absorption and fluorescence in methanol occur at very similar wavelengths. In both solvents there is no concentration dependence of the spectra in the micromolar range and it seems likely that in both solvents the N-OPE are monomeric. […] Fluorescent lifetimes in water are correspondingly shorter than in methanol.
Three symmetrical molecules, S-OPE-1 (H), S-OPE-1 (COOEt) and S-OPE-1 (COO—) show similar two-banded absorption spectra in water and methanol.
(§2) The spectra are concentration independent in the micromolar concentration range and there is a small red shift in the series: S-OPE-1 (H), N-OPE-1=S-OPE-1 (COO—), S-OPE-1 (COOEt). […] Furthermore, we have also synthesized and carried out studies of S-OPE-1 (x) where x=NH2, COCH3, both of these compounds show similar absorption spectra to that of S-OPE-1 (COOEt). The fluorescence of all four compounds shown in Table 2 is strong in methanol and there is little variation in fluorescence efficiency among the different substituted derivatives. However there is a significant variation in the fluorescence efficiencies in aqueous solution ranging from 0.02 for S-OPE-1 (COOEt) to 0.80 for S-OPE-1 (H). […] Clearly the ester groups in N-OPE-1 and S-OPE-1 (COOEt) must play a major role in a solvent-dependent process which deactivates the excited singlet of the oligomers in water. Nanosecond transient absorption spectroscopy was carried out on the OPEs in order to monitor the triplet states. […] The transient lifetimes and spectra are consistent with a triplet state assignment. The 1max of triplet-triplet absorption shifts from 518 nm to 569 nm following the extent of conjugation: S-OPE1-H (518 nm), N-OPE-1 (533 nm), S-OPE-1 (COO—) (557 nm), then S-OPE-1 (COOEt) (569 nm). The apparent triplet yields decrease in the order of S-OPE-1 (H)>S-OPE-1 (COO—)>>N-OPE-1>>S-OPE-1 (COOEt). The triplet lifetimes follow a similar trend as the triplet yield (Table 2).

Data set [2] deals with Pseudomonas aeruginosa Strain PAO1. Briefly: Dark and light activated biocidal activity. It is filed as cell-based. The conditions noted are these: for biocidal activity: in solution and attached to surfaces; for light activated biocidal activity: short term irradiation with near ultraviolet light. The text has this:
The OPEs described herein have been synthesized and studied as dark and light activated biocides towards a Gram negative bacterium, Pseudomonas aeruginosa Strain PAO1. […] N-OPE-1 has been attached to surfaces by covalent linkage. This has been accomplished for both micron sized glass beads and glass slides.

The nature of data set [3]: Nanosecond transient absorption spectroscopy (triplet state lifetime). It is filed as physicochemical. As to conditions: aqueous solution.
Excerpt: as §2

A short description of data set [4]: Solubility in water and polar organic solvents. It is filed as physicochemical. The conditions noted are these: water and polar organic solvents such as methanol.
Excerpt: as §1

Data set [5] is described as follows: Self-assembly / complex formation on carboxymethylcellulose (absorption, fluorescence). The conditions noted are these: two-state model, dimer assumed; estimated from absorbances. It is filed as binding. The text has this: N-OPE:CMC complexes can be formed by adding small aliquots of CMC to aqueous solutions containing the N-OPE compound. […] [N-OPE-1]=1.5×10^−5M. […] [N-OPE-2]=1.5×10^−5 and [CMC]=0-4.2×10^−5M. Both excitation and emission slits are 2.5 nm. Excitation wavelength for N-OPE-1 is 355 nm and for N-OPE-2 is 375 nm. For both N-OPEs there are several isosbestic points in the absorption spectra as the two bands in the absorption for water alone are replaced by a spectrum of the N-OPE:CMC having two bands at longer wavelength. For both N-OPEs the fluorescence also undergoes a red shift and increase in intensity as aliquots of CMC are added, finally leveling off at moderate concentrations (greater than 1 mM) of CMC. […]
Binding constants (assuming that an N-OPE dimer is formed in each case) can be estimated from a determination of the individual absorbances of the two species following a treatment for a similar two-state system developed by Pasternack and co-workers. […]
Self-assembly is not limited solely to the non-symmetrical N-OPE compounds. […] The changes that occur for S-OPE-1 (H), N-OPE-1 and S-OPE-1 (COOEt) (sharp, red shifted absorption spectra, isosbestic points maintained throughout the CMC addition and red-shifted fluorescence) are consistent with an extension of effective conjugation for the oligomers on the carboxylate decorated surface of the CMC.

[6] abbreviates: suspensions of Pseudomonas, much slower than light-activated.
The mark [7] stands for this setting: exposed to bacteria in the dark, up to one hour.

Structures are written as SMILES.

In the case of `C[N+](C)(C)CCCOc1cc(C#Cc2ccccc2)c(OCCC[N+](C)(C)C)cc1C#Cc1ccccc1.[Cl-].[Cl-]` [S-OPE-1 (H)], in data set [1], the “φf in CH3OH” value stood at 0.82, the “φf in H2O” value is listed as 0.80 and the “fluorescence efficiency in aqueous solution” value came out at 0.80. Moreover, the “τ (ns)” value in data set [1] (column after φf in CH3OH) was 1.4 ns. The “τ (ns)” value in data set [1] (column after φf in H2O) is 1.6 ns. Also, in data set [2] (suspensions of Pseudomonas), the “light-activated biocidal activity (rank)” value is given as “S-OPE-1 (x=H)<S-OPE-2 (x=H)”. Further, the “τTA (μs)” value in data set [3] is on record as 216 μs.

For the molecule `C[N+](C)(C)CCCOc1cc(C#Cc2ccc(C#Cc3cc(OCCC[N+](C)(C)C)c(C#Cc4ccccc4)cc3OCCC[N+](C)(C)C)cc2)c(OCCC[N+](C)(C)C)cc1C#Cc1ccccc1.[Cl-].[Cl-].[Cl-].[Cl-]` [S-OPE-2 (x=H)], the “light-activated biocidal activity (rank)” value in data set [2] (suspensions of Pseudomonas) is “S-OPE-1 (x=H)<S-OPE-2 (x=H)”. In addition, the dark biocidal activity result in data set [2] (setting [6]) is “observed”.

For `C[N+](C)(C)CCCOc1cc(C#Cc2ccc(C(=O)[O-])cc2)c(OCCC[N+](C)(C)C)cc1C#Cc1ccc(C(=O)[O-])cc1` [S-OPE-1 (COO—)], in data set [1], the “φf in CH3OH” value was determined as 0.74 and the “φf in H2O” value amounted to 0.70. In data set [1] (column after φf in CH3OH), the “τ (ns)” value came to 1.3 ns. Further, the “τ (ns)” value in data set [1] (column after φf in H2O) was 1.5 ns. The “τTA (μs)” value in data set [3] came out at 136 μs.

Take `CCOC(=O)c1ccc(C#Cc2cc(OCCC[N+](C)(C)C)c(C#Cc3ccc(C#Cc4cc(OCCC[N+](C)(C)C)c(C#Cc5ccccc5)cc4OCCC[N+](C)(C)C)cc3)cc2OCCC[N+](C)(C)C)cc1.[Cl-].[Cl-].[Cl-].[Cl-]` [N-OPE-2]: in data set [1], the fluorescence quantum efficiency result was “over 1%”. Moreover, in data set [1] (solvent H2O), the Φf was found to be 0.012 and the “τf (ns)” value amounted to 0.37 ns. In data set [1] (solvent Methanol), the Φf is given as 0.68 and the “τf (ns)” value amounted to 0.92 ns. Besides, the dark biocidal activity entry in data set [2] (setting [7]) is “active against bacteria both in the dark and in the light”. In addition, in data set [2], the biocidal activity result was “active biocides both in solution and attached to surfaces”; the “light activated biocidal activity” value is “active against bacteria both in the dark and in the light”. Besides, the solubility result in data set [4] was “readily soluble in water and polar organic solvents such as methanol”.

Turning to `CCOC(=O)c1ccc(C#Cc2cc(OCCC[N+](C)(C)C)c(C#Cc3ccccc3)cc2OCCC[N+](C)(C)C)cc1.[Cl-].[Cl-]` [N-OPE-1], in data set [1], the “φf in CH3OH” value amounted to 0.68, the “φf in H2O” value worked out at 0.15 and the fluorescence quantum efficiency is roughly 15%. The “τ (ns)” value in data set [1] (column after φf in CH3OH) worked out at 1.6 ns. Besides, in data set [1] (column after φf in H2O), the “τ (ns)” value is recorded as 1.5 ns. In data set [1] (solvent H2O), the Φf is reported as 0.147 and the “τf (ns)” value amounted to 0.78 ns. Moreover, in data set [1] (solvent Methanol), the Φf amounted to 0.68 and the “τf (ns)” value was 1.57 ns. For the same molecule, in data set [2] (setting [7]), the dark biocidal activity result is “relatively inactive”. In data set [2], the biocidal activity result is “active biocides both in solution and attached to surfaces”; the “light activated biocidal activity” value is recorded as “active as a biocide”. Also, the “binding constant K, CMC:(N-OPE)2” value in data set [5] was “less accurate and slightly lower”. Further, the “τTA (μs)” value in data set [3] came out at 107 μs. In data set [4], the solubility entry was “readily soluble in water and polar organic solvents such as methanol”.

On to `CCOC(=O)c1ccc(C#Cc2cc(OCCC[N+](C)(C)C)c(C#Cc3ccc(C#Cc4cc(OCCC[N+](C)(C)C)c(C#Cc5ccc(C#Cc6cc(OCCC[N+](C)(C)C)c(C#Cc7ccccc7)cc6OCCC[N+](C)(C)C)cc5)cc4OCCC[N+](C)(C)C)cc3)cc2OCCC[N+](C)(C)C)cc1.[Cl-].[Cl-].[Cl-].[Cl-].[Cl-].[Cl-]` [N-OPE-3], for which the dark biocidal activity result in data set [2] (setting [7]) was “active against bacteria both in the dark and in the light”. Also, in data set [2], the biocidal activity result is “active biocides both in solution and attached to surfaces”; the “light activated biocidal activity” value is “active against bacteria both in the dark and in the light”.

In the case of `C[N+](C)(C)CCCOc1cc(C#Cc2ccc(C#Cc3cc(OCCC[N+](C)(C)C)c(C#Cc4ccc(C#Cc5cc(OCCC[N+](C)(C)C)c(C#Cc6ccccc6)cc5OCCC[N+](C)(C)C)cc4)cc3OCCC[N+](C)(C)C)cc2)c(OCCC[N+](C)(C)C)cc1C#Cc1ccccc1.[Cl-].[Cl-].[Cl-].[Cl-].[Cl-].[Cl-]` [S-OPE-3 (x=H)], in data set [2] (setting [6]), the dark biocidal activity entry is reported as “observed”.

Consider `CCOC(=O)c1ccc(C#Cc2cc(OCCC[N+](C)(C)C)c(C#Cc3ccc(C(=O)OCC)cc3)cc2OCCC[N+](C)(C)C)cc1.[Cl-].[Cl-]` [S-OPE-1 (COOEt)], for which, in data set [1], the “φf in CH3OH” value is 0.75, the “φf in H2O” value is reported as 0.023 and the “fluorescence efficiency in aqueous solution” value was 0.02. Also, the “τ (ns)” value in data set [1] (column after φf in CH3OH) turned out to be 1.4 ns. Also, the “τ (ns)” value in data set [1] (column after φf in H2O) was found to be 1.0 ns. Also, the “τTA (μs)” value in data set [3] is 77 μs.

These data come from patent US8753570B2, “Structure, synthesis, and applications for oligo phenylene ethynylenes” (STC.UNM, priority 2008, dated 2014).
